Data from ChEMBL document CHEMBL3817783, “Identification of Potential Off-target Toxicity Liabilities of Catechol-O-methyltransferase Inhibitors by Differential Competition Capture Compound Mass Spectrometry” (J Med Chem, 2016).
The source made the active and inactive calls. The rule behind the calls is not given here.

Experiments:
[1] = biological target: Kynurenine--oxoglutarate transaminase 3 (Homo sapiens, UniProt Q6YP21); assay: Binding affinity to CCBL2 in human HepG2 assessed as intensity fold change of cumulated normalized intensity of protein between capture and competition assay at 100 uM after 1 hr in presence of active Tcp-CC-13 by differential competition capture compound mass spectrometry; assay type: ADME
Sequence of Kynurenine--oxoglutarate transaminase 3 (Q6YP21 whole entry): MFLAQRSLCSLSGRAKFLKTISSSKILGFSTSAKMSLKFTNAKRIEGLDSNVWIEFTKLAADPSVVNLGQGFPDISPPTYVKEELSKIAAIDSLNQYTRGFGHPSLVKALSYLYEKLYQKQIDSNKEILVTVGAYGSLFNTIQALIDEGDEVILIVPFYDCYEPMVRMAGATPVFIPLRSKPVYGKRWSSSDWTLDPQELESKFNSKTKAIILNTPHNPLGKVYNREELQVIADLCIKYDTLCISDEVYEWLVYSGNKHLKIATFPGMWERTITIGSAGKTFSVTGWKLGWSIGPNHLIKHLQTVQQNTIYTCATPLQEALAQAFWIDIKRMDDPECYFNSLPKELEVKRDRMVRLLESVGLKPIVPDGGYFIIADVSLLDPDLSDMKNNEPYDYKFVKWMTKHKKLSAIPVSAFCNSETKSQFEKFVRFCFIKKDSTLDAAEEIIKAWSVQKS

[2] = biological target: T1, 3-hydroxyisobutyryl-CoA hydrolase, mitochondrial (Homo sapiens) (UniProt Q6NVY1); assay: Binding affinity to human recombinant HIBCH assessed as intensity fold change of cumulated normalized intensity of protein between capture and competition assay at 100 uM after 1 hr in presence of inactive Tcp-CC-14 by differential competition capture compound mass spectrometry
T1 sequence (whole entry): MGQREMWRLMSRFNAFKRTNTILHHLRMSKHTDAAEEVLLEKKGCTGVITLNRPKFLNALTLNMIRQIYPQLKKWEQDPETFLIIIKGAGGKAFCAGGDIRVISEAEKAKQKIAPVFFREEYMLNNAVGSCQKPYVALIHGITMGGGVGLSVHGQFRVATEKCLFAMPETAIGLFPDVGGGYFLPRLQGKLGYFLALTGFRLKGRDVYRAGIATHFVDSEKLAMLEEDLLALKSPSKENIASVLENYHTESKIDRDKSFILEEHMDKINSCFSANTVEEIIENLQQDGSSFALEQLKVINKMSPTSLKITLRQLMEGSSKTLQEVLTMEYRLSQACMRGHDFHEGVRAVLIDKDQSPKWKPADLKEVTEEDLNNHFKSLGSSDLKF

HepG2 [3] = assay: Mitochondrial toxicity in human HepG2 cells assessed as mitochondrial membrane potential levels at 50 uM by TMRE-based mitochondria membrane potential assay relative to control; assay type: cell-based; conditions: hepg2, 50 µM
[4] = biological target: T2, Protein NipSnap homolog 3A (Homo sapiens, UniProt Q9UFN0); assay: Binding affinity to NIPSNAP3A in human HepG2 assessed as intensity fold change of cumulated normalized intensity of protein between capture and competition assay at 100 uM after 1 hr in presence of inactive Tcp-CC 14 by differential competition capture compound mass spectrometry; assay type: ADME
T2 sequence (Q9UFN0 whole entry): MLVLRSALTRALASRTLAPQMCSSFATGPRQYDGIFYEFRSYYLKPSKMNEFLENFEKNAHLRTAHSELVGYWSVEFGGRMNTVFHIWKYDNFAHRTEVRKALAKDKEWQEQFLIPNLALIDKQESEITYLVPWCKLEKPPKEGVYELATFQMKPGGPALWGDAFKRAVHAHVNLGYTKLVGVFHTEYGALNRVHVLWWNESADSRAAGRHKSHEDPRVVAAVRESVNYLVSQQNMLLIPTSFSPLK

[5] = biological target: T3, Glutaryl-CoA dehydrogenase, mitochondrial (Homo sapiens, UniProt Q92947); assay: Binding affinity to GCDH in human HepG2 assessed as intensity fold change of cumulated normalized intensity of protein between capture and competition assay at 100 uM after 1 hr in presence of active Tcp-CC-13 by differential competition capture compound mass spectrometry; assay type: ADME
T3 sequence (Q92947 whole entry): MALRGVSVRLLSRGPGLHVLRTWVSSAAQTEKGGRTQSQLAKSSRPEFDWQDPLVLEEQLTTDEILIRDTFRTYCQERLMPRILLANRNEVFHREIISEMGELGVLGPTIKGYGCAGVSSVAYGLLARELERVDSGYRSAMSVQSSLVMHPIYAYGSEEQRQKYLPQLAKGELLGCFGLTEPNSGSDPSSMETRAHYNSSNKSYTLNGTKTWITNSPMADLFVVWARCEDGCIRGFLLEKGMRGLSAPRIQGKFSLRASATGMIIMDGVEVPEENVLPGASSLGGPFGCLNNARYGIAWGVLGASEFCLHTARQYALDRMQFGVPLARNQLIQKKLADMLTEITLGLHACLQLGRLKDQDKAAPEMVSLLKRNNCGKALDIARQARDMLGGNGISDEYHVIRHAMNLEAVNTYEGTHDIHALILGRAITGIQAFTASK

Pyridoxal kinase = biological target: T4, Pyridoxal kinase (Homo sapiens, UniProt O00764); assay: Binding affinity to PDXK in human HepG2 assessed as intensity fold change of cumulated normalized intensity of protein between capture and competition assay at 100 uM after 1 hr in presence of inactive Tcp-CC 14 by differential competition capture compound mass spectrometry; assay type: ADME
T4 sequence (O00764 whole entry): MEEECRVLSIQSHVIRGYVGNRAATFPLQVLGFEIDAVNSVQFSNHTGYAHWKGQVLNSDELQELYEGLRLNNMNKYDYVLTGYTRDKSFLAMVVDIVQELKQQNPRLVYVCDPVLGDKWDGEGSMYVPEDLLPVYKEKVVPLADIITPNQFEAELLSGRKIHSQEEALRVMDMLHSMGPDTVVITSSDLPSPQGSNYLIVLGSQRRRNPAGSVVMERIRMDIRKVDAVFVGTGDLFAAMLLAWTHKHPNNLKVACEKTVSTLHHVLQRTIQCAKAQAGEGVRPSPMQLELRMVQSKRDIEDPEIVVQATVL

[6] = biological target: Aldo-keto reductase family 1 member B10 (Homo sapiens, UniProt O60218); assay: Binding affinity to AKR1B10 in human HepG2 assessed as intensity fold change of cumulated normalized intensity of protein between capture and competition assay at 100 uM after 1 hr in presence of inactive Tcp-CC 14 by differential competition capture compound mass spectrometry; assay type: ADME
Sequence of Aldo-keto reductase family 1 member B10 (O60218 whole entry): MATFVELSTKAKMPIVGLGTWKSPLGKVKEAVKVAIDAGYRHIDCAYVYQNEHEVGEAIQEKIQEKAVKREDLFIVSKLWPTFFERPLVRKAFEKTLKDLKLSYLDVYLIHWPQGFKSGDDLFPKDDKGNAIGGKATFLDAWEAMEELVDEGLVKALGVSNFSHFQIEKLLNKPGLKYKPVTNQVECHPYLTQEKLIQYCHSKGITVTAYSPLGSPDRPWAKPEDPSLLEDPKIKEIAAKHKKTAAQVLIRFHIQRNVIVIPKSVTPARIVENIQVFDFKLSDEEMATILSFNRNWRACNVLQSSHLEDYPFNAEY

Acireductone dioxygenase = biological target: T5, Acireductone dioxygenase (Homo sapiens, UniProt Q9BV57); assay: Binding affinity to ADL1 in human HepG2 assessed as intensity fold change of cumulated normalized intensity of protein between capture and competition assay at 100 uM after 1 hr in presence of active Tcp-CC-13 by differential competition capture compound mass spectrometry; assay type: ADME
T5 sequence (Q9BV57 whole entry): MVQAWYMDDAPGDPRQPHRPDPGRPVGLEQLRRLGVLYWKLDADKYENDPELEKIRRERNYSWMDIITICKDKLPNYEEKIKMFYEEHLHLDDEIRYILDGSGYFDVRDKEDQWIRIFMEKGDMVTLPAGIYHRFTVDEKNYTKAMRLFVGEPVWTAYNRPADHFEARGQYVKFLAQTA

[7] = biological target: T1, 3-hydroxyisobutyryl-CoA hydrolase, mitochondrial (Homo sapiens); assay: Binding affinity to human recombinant HIBCH assessed as intensity fold change of cumulated normalized intensity of protein between capture and competition assay at 100 uM after 1 hr in presence of active Tcp-CC-13 by differential competition capture compound mass spectrometry
HepG2 [8] = assay: Mitochondrial toxicity in human HepG2 cells assessed as mitochondrial membrane potential levels at 100 uM by TMRE-based mitochondria membrane potential assay relative to control; assay type: cell-based; conditions: hepg2, 100 µM
[9] = biological target: T6, Catechol O-methyltransferase (Homo sapiens) (UniProt P21964); assay: (§1) Inhibition of human recombinant His-tagged soluble COMT expressed in Escherichia coli BL21 using aesculetin as substrate after 60 mins by microplate assay in presence of SAM
T6 sequence (whole entry): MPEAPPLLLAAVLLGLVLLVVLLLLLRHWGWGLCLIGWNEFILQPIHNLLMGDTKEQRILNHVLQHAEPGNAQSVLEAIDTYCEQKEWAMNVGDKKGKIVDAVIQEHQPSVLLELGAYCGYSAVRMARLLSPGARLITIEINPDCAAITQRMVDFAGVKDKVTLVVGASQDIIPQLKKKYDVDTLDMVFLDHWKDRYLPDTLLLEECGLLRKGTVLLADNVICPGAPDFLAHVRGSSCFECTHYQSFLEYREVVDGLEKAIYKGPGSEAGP

[10] = biological target: T7, Catechol O-methyltransferase (Homo sapiens, UniProt P21964); assay: as §1
T7 sequence (P21964 whole entry): T6 sequence (whole entry)

Structure (SMILES) | fold change (FC) [1] | Activity [2] | Activity (HepG2 [3]) | fold change (FC) [4] | fold change (FC) [5] | fold change (FC) (Pyridoxal kinase) | fold change (FC) [6] | fold change (FC) (Acireductone dioxygenase) | fold change (FC) [7] | Activity (HepG2 [8]) | inhibition [9] | IC50 [10]
CCN(CC)C(=O)c1cc2cc(O)c(O)c([N+](=O)[O-])c2cc1C(=O)N(CC)CC | 3.05 | inactive | < 20% | 7.5 | 5.9 | 16 | 4.7 | 3.67 | 5.35 | 0% | – | –
CCN(CC)C(=O)/C(C#N)=C/c1cc(O)c(O)c([N+](=O)[O-])c1 [ENTACAPONE] | 8.63 | – | > 50% | 2.11 | 6.09 | 3.46 | 2.98 | 2.38 | 1.04 | 40% | – | –
Cc1ccc(C(=O)c2cc(OCCCCNC(=O)C[C@H](NC(=O)c3ccc(N=[N+]=[N-])cc3)C(=O)NCCCOCCOCCOCCCNC(=O)CCCC[C@@H]3SC[C@@H]4NC(=O)N[C@@H]43)c(O)c([N+](=O)[O-])c2)cc1 | – | – | – | – | – | – | – | – | – | – | inactive | –
CCN1C(=O)S/C(=C/c2cc(O)c(O)c([N+](=O)[O-])c2)C1=O | 3.4 | – | > 50% | 3 | 6.34 | 24.9 | 3.1 | 4.29 | 1 | – | – | 179 nM
Cc1ccc(C(=O)c2cc(O)c(O)c([N+](=O)[O-])c2)cc1 [TOLCAPONE] | 4.12 | Active | < 20% | – | 5.82 | 2.4 | 2.3 | 7.59 | 14.2 | 0% | – | –
CN(Cc1ccc(C(=O)c2cc(O)c(O)c([N+](=O)[O-])c2)cc1)C(=O)CCCCCNC(=O)C[C@H](NC(=O)c1ccc(N=[N+]=[N-])cc1)C(=O)NCCCOCCOCCOCCCNC(=O)CCCC[C@@H]1SC[C@@H]2NC(=O)N[C@@H]21 | – | – | – | – | – | – | – | – | – | – | – | 648 nM
